Legend:
[1] = test system: P. falciparum 3D7[hGrx1-roGFP2] cytosolic glutathione-dependent redox potential; assay: Cytosolic glutathione redox sensor hGrx1-roGFP2, confocal live cell imaging (CLSM); type: cell-based, Plasmodium falciparum; details: 24 h incubation, approximately 4 × EC50
Description: A Leica confocal system TCS SP5 inverted microscope equipped with the objective HCX PL APO 63.0 × 1.30 GLYC 37 °C UV connected to a 37 °C temperature chamber was used. The argon laser power was set to 20%; scanning was performed at 400 Hz frequency and at a 512 × 512 pixel resolution. The smart gain and smart offset were 950 V and −0.9%, respectively. With a sequential scan, the hGrx1–roGFP2 probe was excited at 405 nm and at 488 nm and emission was detected at 500–550 nm. Laser intensity was adjusted to match the full dynamic range of the probe to the dynamic range of the detector (405 nm: 10%, 488 nm: 4%). […] The Leica LAS AF Lite software for fluorescence analysis was used. The 405/488 nm ratio was calculated. The graphs were plotted using the GraphPad Prism 5 software (San Diego, CA, USA). For live cell imaging, only parasites showing fluorescent signals at both 405 and 488 nm excitation and an intact host cell were chosen.
The effect of ML304 and the anti-malarial drugs ATS and CQ as reference drugs on P. falciparum were investigated in 4 h and 24 h incubation experiments. […] For 4 h experiments, trophozoite stage parasites (26–30 h) of 3D7^[hGrx1–roGFP2] and NF54^[hGrx1–roGFP2] (6–8% parasitaemia) were magnetically enriched (Miltenyi Biotec, Germany), counted by using a Neubauer hemocytometer (Brand GmbH, Germany), and returned to cell culture (at 2.0 × 10^4 trophozoites μL^−1) for at least 1 h to recover. 1.0 × 10^6 cells in 100 μL cell culture medium were placed into LoBind tubes (Eppendorf, Hamburg, Germany) for 4 h incubation experiments. The parasites were treated with ML304 at 1 μM, 50 μM, and 100 μM, or with the anti-malarial drugs ATS and CQ at approximately 50 × EC50 for 4 h under cell culture conditions. Subsequently, free thiol groups were blocked with 2 mM N-ethylmaleimide (NEM) for 15 min at 37 °C. For 24 h experiments, a 5 mL culture (5% haematocrit, 6–8% parasitaemia) of ring stage parasites (6–10 h post invasion) was treated with ML304 at 1 μM, 5 μM, and 10 μΜ, or the anti-malarial drugs ATS and CQ at approximately 4 × EC50. Prior to enrichment, cysteines were blocked with 2 mM NEM for 15 min at 37 °C. For 4 h and 24 h experiments, cells were washed after incubation and resuspended in Ringer’s solution (122.5 mM NaCl, 5.4 mM KCl, 1.2 mM CaCl2, 0.8 mM MgCl2, 11 mM D-glucose, 25 mM HEPES, 1 mM NaH2PO4, pH 7.4). 50 μL of cells (1.0 × 10^6 cells 50^−1 μL^−1) were seeded onto poly-L-lysine-coated μ-Slides 18 well (flat) (Ibidi, Martinsried, Germany) and measured using CLSM (confocal laser scanning microscopy) with excitation wavelengths at 405 nm and 488 nm. […] Each experiment was carried out three times. Between 10 and 20 microscopy images were taken each time, resulting in at least 30 experimental values per concentration and incubation time. The obtained ratio values were normalized to the control value, which was set to 100. All experiments were carried out within 6 weeks after the appearance of transfectants. Mean and standard error of the mean (SEM) are shown. A one-way ANOVA test with 95% confidence intervals with the Dunnett’s multiple comparison test (GraphPad Prism 5.0) was applied for statistical analysis of significance (*p < 0.05; **p < 0.01; ***p < 0.001).

[2] = biological target: T1, recombinant hGrx1-roGFP2 (Homo sapiens, UniProt P35754); assay: In vitro interaction with recombinant hGrx1-roGFP2 probe; type: biochemical; details: at the concentrations used in this study
T1 construct: made in house
Description: The sensor hGrx1–roGFP2 (human glutaredoxin 1-reduction–oxidation sensitive green fluorescent protein 2) was recently transiently expressed in 3D7 P. falciparum parasites by using the pARL1a(+) expression vector. Heterologous overexpression of hGrx1–roGFP2 for the evaluation of the in vitro interactions of ML304 and anti-malarial drugs with the recombinant redox probe was performed according to [35].
ML304 was used at concentrations of 10 nM to 1 mM in degassed standard reaction buffer (100 mM potassium phosphate, 1 mM EDTA, pH 7.0). […] The characterization of the in vitro interaction of hGrx1–roGFP2 with ML304 was performed according to Schuh et al..

[3] = test system: P. falciparum 3D7; details: determined previously; cited from earlier work
[4] = biological target: PvG6PD (Plasmodium vivax, UniProt A5K3M1); assay: PvG6PD enzyme inhibition assay (NADPH formation, absorbance 340 nm / fluorescence); type: biochemical; details: for Type of inhibition of PvG6PD: with respect to both G6P and NADP+
Description: The G6PD activity of PfGluPho variants was measured spectrophotometrically as described for the wt enzyme. Kinetic characterization of PvG6PD was performed using the same assay system at an Evolution 300 spectrophotometer (Thermo Scientific, Dreieich, Germany). In brief, the initial reduction of NADP^+ to NADPH by PvG6PD was monitored by measuring the absorbance at 340 nm. The 500 µL reaction mixture contained 200 µM NADP^+ and varying concentrations of PvG6PD in an assay buffer of 100 mM Tris–HCl, pH 8.0, 10 mM MgCl2, and 0.5 mM EDTA at 25 °C. The reaction was started by adding 800 µM G6P. The KM for NADP^+ was determined by titrating NADP^+ from 2 to 400 µM at 800 µM G6P; the KM for G6P was measured accordingly by titrating G6P from 2 to 1200 µM at 200 µM NADP^+. KM values were calculated using GraphPad Prism. Since the KM for G6P was considerably higher than the value measured for PfGluPho [14], a concentration of 800 µM G6P was defined as substrate saturation for PvG6PD.
To identify potential inhibitors of PvG6PD, compounds with already known effects on PfGluPho (ellagic acid and derivatives, ML304) were tested. Additionally, several compound libraries of the Helmholtz Center for Infection Research, Brunswick, were screened against PfGluPho using the high-throughput-compatible assay systems described in Preuss et al.. […] Based on structure-activity relationship studies, a set of new potential G6PD inhibitors (Fig. 8) was then synthesized and assessed. First, the IC50 values of the compounds were determined, followed by mechanistic characterization of the mode of action. To test for selectivity of the compounds, the IC50 values of the compounds on PvG6PD, PfGluPho, and hG6PD were determined in parallel.
All measurements were performed in 96-well plates, half area (Greiner Bio-One, Frickenhausen, Germany) using a Tecan Infinite M200 plate reader (Maennedorf, Switzerland). The compounds were dissolved in 100% DMSO and afterwards diluted in assay buffer to the required concentrations. Different compound concentrations were added to a mixture of enzyme and NADP^+ in assay buffer. Concentrations of substrates differed depending on the enzyme; an overview is given in the Additional file 4. The reaction was started by adding G6P, and the increase of NADPH was monitored by measuring the absorbance at 340 nm. To increase the sensitivity of the assay, some measurements were reproduced, detecting the fluorescence of NADPH at ex340/em460. […] A negative control containing no compound was defined as 0% inhibition; a positive control lacking the substrate G6P was defined as 100% inhibition. For evaluations using GraphPad Prism and Microsoft Excel, only a linear increase in absorbance/fluorescence was considered. For the mechanistic characterization of the compounds, either NADP^+ or G6P were titrated at different compound concentrations around the IC50, while keeping the second substrate in saturation. The initial slope was plotted as Michaelis–Menten curves and Lineweaver–Burk plots using GraphPad Prism; KM values and Vmax were calculated with GraphPad Prism software.

[5] = biological target: T2, PfGluPho (Plasmodium falciparum, UniProt Q8IKU0); details: cited from earlier work
T2 construct: made in house
T2 sequence (Q8IKU0 1-910): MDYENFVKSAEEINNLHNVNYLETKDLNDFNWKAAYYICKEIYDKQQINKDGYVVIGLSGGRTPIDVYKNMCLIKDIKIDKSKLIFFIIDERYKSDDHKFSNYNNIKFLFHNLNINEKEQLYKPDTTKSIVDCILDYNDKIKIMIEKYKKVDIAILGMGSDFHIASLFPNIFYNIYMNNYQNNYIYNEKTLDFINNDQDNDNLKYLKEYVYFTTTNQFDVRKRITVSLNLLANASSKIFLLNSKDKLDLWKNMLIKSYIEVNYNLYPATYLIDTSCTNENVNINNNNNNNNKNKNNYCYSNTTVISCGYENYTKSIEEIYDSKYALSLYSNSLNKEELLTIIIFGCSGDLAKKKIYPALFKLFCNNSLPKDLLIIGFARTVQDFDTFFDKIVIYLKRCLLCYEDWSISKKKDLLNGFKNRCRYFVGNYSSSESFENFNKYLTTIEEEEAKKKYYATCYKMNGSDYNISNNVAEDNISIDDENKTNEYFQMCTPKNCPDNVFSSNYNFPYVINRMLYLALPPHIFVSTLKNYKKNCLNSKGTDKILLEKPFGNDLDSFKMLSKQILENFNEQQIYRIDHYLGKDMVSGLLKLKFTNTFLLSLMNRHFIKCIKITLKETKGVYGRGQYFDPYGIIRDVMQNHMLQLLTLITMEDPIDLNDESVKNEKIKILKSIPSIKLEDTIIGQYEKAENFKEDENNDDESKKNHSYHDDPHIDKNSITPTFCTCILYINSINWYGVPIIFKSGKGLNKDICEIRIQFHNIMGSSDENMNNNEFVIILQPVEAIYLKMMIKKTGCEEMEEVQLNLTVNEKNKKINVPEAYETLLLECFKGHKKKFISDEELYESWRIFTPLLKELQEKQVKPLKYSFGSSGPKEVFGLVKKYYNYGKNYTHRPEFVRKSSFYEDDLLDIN

[6] = biological target: T3, hG6PD (Homo sapiens, UniProt P11413); details: ellagic acid; read-out: IC50 for hG6PD; cited from earlier work
T3 construct: made in house

[7] = test system: P. falciparum strains; details: cited from earlier work
[8] = test system: Plasmodium yoelii strain overproducing GSH; parameters: method as in PMID 23029306; details: cited from earlier work
[9] = cited from earlier work
[10] = biological target: PfPrx1a (Plasmodium falciparum); assay: non-reducing SDS-PAGE with western blot; recombinant PfPrx1a (positive control) after incubation with GSSG, SDS-PAGE without DTT, anti-glutathione western blot and Ponceau staining
[11] = biological target: the molecule itself; assay: SEC; gel filtration chromatography of purified PvG6PD under reducing conditions; single peak of approximately 389 kDa

T3 sequence (P11413 whole entry): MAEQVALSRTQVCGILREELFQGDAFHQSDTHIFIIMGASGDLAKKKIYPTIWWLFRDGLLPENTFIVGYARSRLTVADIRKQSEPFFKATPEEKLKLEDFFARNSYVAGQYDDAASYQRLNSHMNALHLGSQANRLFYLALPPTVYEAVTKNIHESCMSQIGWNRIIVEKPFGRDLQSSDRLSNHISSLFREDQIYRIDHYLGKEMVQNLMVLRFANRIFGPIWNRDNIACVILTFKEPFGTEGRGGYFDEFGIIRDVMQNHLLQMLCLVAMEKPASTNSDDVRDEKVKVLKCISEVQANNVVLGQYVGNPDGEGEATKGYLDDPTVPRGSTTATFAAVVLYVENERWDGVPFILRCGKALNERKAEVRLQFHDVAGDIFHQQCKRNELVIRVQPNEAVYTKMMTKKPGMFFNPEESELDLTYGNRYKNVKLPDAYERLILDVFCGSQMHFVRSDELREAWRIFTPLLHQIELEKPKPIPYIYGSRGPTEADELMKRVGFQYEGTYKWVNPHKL

C[C@@H]1CC[C@H]2[C@@H](C)C(=O)O[C@@H]3O[C@@]4(C)CC[C@@H]1[C@]32OO4 [ATS, artemisinin]
Increase of redox ratio (405/488 nm) [1]: hardly affected | Direct interaction with recombinantly purified hGrx1-roGFP2 probe [2]: excluded a direct interaction | EC50 [3]: 4.4 nM

CCN(CC)CCCC(C)Nc1ccnc2cc(Cl)ccc12 (stereo not drawn) [CQ, chloroquine]
Increase of redox ratio (405/488 nm) [1]: 1.5 fold | Direct interaction with recombinantly purified hGrx1-roGFP2 probe [2]: excluded a direct interaction | EC50 [3]: 8.6 nM

O=c1oc2c(O)c(O)cc3c(=O)oc4c(O)c(O)cc1c4c23 [ellagic acid]
IC50 [4]: 32.5 ± 13.4 nM | Type of inhibition of PvG6PD [4]: mixed type inhibitor | Type of inhibition of PvG6PD ([4]; listed as EA): mixed type inhibition | IC50 ([5]; ellagic acid, read-out: IC50 on PfGluPho): 77 ± 22 nM | Type of inhibition of PfGluPho ([5]; with respect to both G6P and NADP+): mixed type inhibition | IC50 [6]: 102 ± 39 nM | Interaction with chloroquine, atovaquone, mefloquine, and artesunate [7]: synergistic effects | Sensitivity of GSH-overproducing P. yoelii strain versus wt [8]: five times less sensitive | Haemolytic effects ([9]; mice): no observable haemolytic effects | Overall toxicity in mice ([9]; mouse, in vivo): low

PfPrx1a (enzyme)
stoichiometry N [10]: 2

B1: Plasmodium vivax glucose 6-phosphate dehydrogenase (PvG6PD), C-terminal part (aa 310-927) of PvGluPho (domain or fragment, UniProt A5K3M1 310-927, looked up)
chain: LNRRECLTIIVFGCSGDLAKKKIYPAIFKLFCNKRLPKDLLIVGFARTAQSFDSFFDKIVGYLKRCLHSYEDLSLTQKKDLLNCFKNKCRYYIGDYSSSESFERFNKYLTQLERENLIGTAPTSWAAAAGNASFANDTDKVEHHPDEAILAKGTGAATPGEAPGGANGPATHGEAHGGANGLSTPMQGKAVPTDDTSDEGHSGANHPFAINRILYLALPPHIFVSTLKNYKKNCQNGNGTDKILLEKPFGKDLQTFKVLSKQILENFNEEHIYRIDHYLGKDMVSGLLKLKFTNTFLLSLMNRHFIKCIKITLKETKGVYGRGQYFDPYGIIRDVMQNHMLQLLALITMEDPIDLNDESVKNEKIKILKCIQSIKLDNTIIGQYVKSENYQEEKNLSAPPSDDHPVDESKRNHSYHDDPHIDSNSITPTFCTCILYINSINWYGVPIIFKAGKGLNKDICEIRLQFHNIMGSSDESMYNNEFVIILQPVEVIYLKMMIKKTGCEEMEEVQLNLTVNHKNKKNYVPEAYETLLLECFRGFKKKFISDEELYESWRIFTPLLNELQEKKVQPLKYPFGSSGPKEVYDLVKKYYNYGKNYANTPAFVRKSSFYEDDLLDIN
notes: glucose 6-phosphate dehydrogenase 6-phosphogluconolactonase (PvGluPho) of Plasmodium vivax, PlasmoDB PVX_117790; G6PD part, aa 310-927 (bp 930-2784); Calculated mass of the His-tagged protein 71.9 kDa; also called P. vivax G6PD; source: E. coli M15 with pRAREII (pQE30 vector), purified (Ni-NTA, size exclusion chromatography); not shown: His6, N-terminal, kept
stoichiometry N [11]: 6
